For this test, the target named is T1, human glycolate oxidase (hGO) (Homo sapiens, UniProt Q9UJM8).
T1 construct: His-tag (6 histidines) (N); made in house; host or cells: E. coli BL21 (DE3)
T1 sequence (Q9UJM8 1-370): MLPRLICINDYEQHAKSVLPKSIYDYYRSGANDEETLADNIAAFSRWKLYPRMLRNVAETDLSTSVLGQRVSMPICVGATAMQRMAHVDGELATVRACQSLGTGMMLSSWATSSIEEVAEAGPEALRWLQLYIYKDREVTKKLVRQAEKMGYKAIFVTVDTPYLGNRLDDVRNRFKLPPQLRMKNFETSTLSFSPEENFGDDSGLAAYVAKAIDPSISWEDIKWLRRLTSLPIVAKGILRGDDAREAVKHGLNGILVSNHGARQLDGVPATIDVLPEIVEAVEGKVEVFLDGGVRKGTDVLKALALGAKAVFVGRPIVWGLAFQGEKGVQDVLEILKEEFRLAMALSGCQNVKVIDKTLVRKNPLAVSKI
Put plainly: In vitro inhibition of human glycolate oxidase (enzymatic assay, coupled HRP/Trinder reaction). The format is biochemical. Conditions: recombinant hGO, 40 mM glycolic acid, pH 7, activity at 1 minute, read at 515 nm. The text has this:
The catalytic reactions used for assaying glycolate oxidase activity in the presence of compounds according to the present disclosure are outlined in FIG. 9. Glycolate oxidase (GO)-catalyzed conversion of glycolate to glyoxylate (top reaction), with the concomitant reduction of the cofactor flavin mononucleotide (FMN), uses molecular oxygen (O2) for recovering its oxidative state, releasing hydrogen peroxide (H2O2). The Trinder reaction (bottom reaction), in which horseradish peroxidase (HRP) uses hydrogen peroxide, 4-aminoantipyrine and a phenol derivative (sulphonated DCIP) to generate a quinoneimine dye that is spectrophotometrically measured.
Human glycolate oxidase (hGO) expression: BL21 (DE3) E. coli transformed with recombinant pET-15b expression vector with the N-terminal His-tag human Hao1 cDNA was grown in LB medium in the presence of 0.1 mg/ml ampicillin. […] Protein were quantified by the bicinchoninic acid (BCA) assay.
Enzymatic assays: Enzymatic activity of hGO was determined in the presence of glycolate as substrate (40 mM glycolic acid) and phosphate buffer (50 mM KPO4, 0.1 mM EDTA, pH 7). The production of glyoxylate was indirectly measured by the quantification of hydrogen peroxide formed during the first oxidation reaction. […] Enzymatic activity was calculated at 1 minute after initiation of the Trinder reaction.

In patent US20260217662A1, “PROCESSES FOR PREPARING TRIAZOLE GLYCOLATE OXIDASE INHIBITORS” (CANTERO THERAPEUTICS, INC., priority 2020, published 2026) one finds IC50 data, which are given here for two molecules.

Where only a bound is given, the exact number is not on record here.

Take `O=C(O)c1nn[nH]c1Oc1ccc(-c2ccc(C3CCC(F)(F)C3)cc2)cc1` (centres unmarked) [Ib-1, 5-((4′-(3,3-difluorocyclopentyl)-[1,1′-biphenyl]-4-yl)oxy)-1H-1,2,3-triazole-4-carboxylic acid]: the IC50 was under 100 nM.

Take `O=C(O)c1nn[nH]c1Oc1ccc(-c2ccc(C3CCC(F)(F)CC3)cc2)cc1` [Ic-1, 5-((4′-(4,4-difluorocyclohexyl)-[1,1′-biphenyl]-4-yl)oxy)-1H-1,2,3-triazole-4-carboxylic acid]: the concentration for half-maximal inhibition (IC50) was under 100 nM.

For orientation: IC50 means the concentration that gives 50% inhibition.
